This note sets out measurements from patent publication US5204323A, “Heparin and hirudin antidotal compositions and methods” (Ciba-Geigy Corporation, priority 1988, dated 1993).

The subject of assay [1] is Factor VIII levels in human plasma. Description: DDAVP infusion into human volunteers, Factor VIII levels in plasma. The conditions noted are these: DDAVP 0.3 mg/kg in sterile saline infused over 15 minutes, compared to volume matched saline controls, FIG. 7. The assay is classed as in vivo. On the procedure:
(§1) 1-Deamino-8-D-arginine vasopressin (DDAVP) ([…] in sterile saline) is infused into human volunteers over a 15 minute period between times 0-15 minutes. Subsequently blood samples are taken and FVIII levels measured (Langdell et al. (1953) J. Lab. Chim. Med. 41, 637) and the correspond. ing effect on hirudin induced elevation of APTT in vitro asessed. The results are shown in FIG. 7 which represent a typical example of ten volunteer studies. […] Results are compared to volume matched saline controls.

Assay [2] concerns hirudin induced elevation of APTT in human plasma. Kind of assay: Hirudin induced elevation of APTT in vitro in blood samples taken after DDAVP infusion. The assay is classed as in vivo. The conditions noted are these: blood samples of human volunteers after DDAVP infusion (0.3 mg/kg, 15 minutes); desulphatohirudin HV1 added in vitro; FIG. 7. On the procedure:
The anticoagulant effects of hirudin are measured in vitro on human plasma to which various concentrations of hirudin (in saline) have been added, one minute prior to APTT determination (Activated partial thromboplastin time; means for measuring blood clotting according to Basu et al. (1972) N. Engl. J. Med. 287, 324). Different concentrations of FVIII (reconstituted in water in accordance with the manufacturers specification) are added and the results are shown in FIG. 3 of the accompanying drawings. The anticoagulant effects of hirudin are measured by APTT.
as §1

With `NC(=O)CC[C@@H]1NC(=O)[C@H](Cc2ccccc2)NC(=O)[C@H](Cc2ccc(O)cc2)NC(=O)CCSSC[C@@H](C(=O)N2CCC[C@H]2C(=O)N[C@H](CCCN=C(N)N)C(=O)NCC(N)=O)NC(=O)[C@H](CC(N)=O)NC1=O` [DDAVP, 1-deamino-8-D-arginine vasopressin], in assay [1], the FVIII levels entry is listed as “raised FVIII levels”. Moreover, the “effect on hirudin induced elevation of APTT in vitro” value in assay [2] was “reduces the degree of anticoagulation induced by hirudin”.
